Source: patent publication US9840478B2 (MERCK SHARP & DOHME CORP., priority 2013, dated 2017)

Tested on: HIV-1 (H9IIIB strain)
Test: Cell-based HIV infection assay using a reporter (Cell-Based), MT4-GFP cells
Settings: Human immunodeficiency virus 1, MT4-GFP cells infected with HIV-1 H9IIIB; 50% normal human serum; mean of at least two independent experiments; read-out: Cell-based IP
Procedure, shortened: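 IC50 from 4-parameter dose-response of % viral growth inhibition, using the 48 h/24 h infected-cell ratio scaled between DMSO and a protease/integrase/NNRTI triple-drug control. Assay used MT4 cells with HIV-LTR-GFP reporter, pre-infected 24 h with HIV-1 H9IIIB, in 50% normal human serum.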

| Structure (SMILES) | IC50 |
| --- | --- |
| COC(=O)N[C@H](C(=O)Nc1cncc(F)c1CC[C@H]1CNC[C@H](C)N1S(=O)(=O)c1ccc(OC)cc1)[C@@H](c1ccc(Cl)cc1)C1CCOCC1 [Example 136, (βR)-4-chloro-N-[5-fluoro-4-(2-{(2S,6S)-1-[(4-methoxyphenyl)sulfonyl]-6-methylpiperazin-2-yl}ethyl)pyridin-3-yl]-Nα-(methoxycarbonyl)-β-(tetrahydro-2H-pyran-4-yl)-L-phenylalaninamide] | 10 nM |
| N[C@H](C(=O)Nc1cccc(F)c1CC[C@H]1CNCCN1S(=O)(=O)c1ccccc1)[C@@H](c1ccc(Cl)c(F)c1)C1CCOCC1 [Example 37, (βR)-4-chloro-3-fluoro-N-(3-fluoro-2-{2-[(2S)-1-(phenylsulfonyl)piperazin-2-yl]ethyl}phenyl)-β-(tetrahydro-2H-pyran-4-yl)-L-phenylalaninamide] | 46 nM |
| C[C@H]1CNC[C@@H](CCc2c(F)cccc2NC(=O)CC(c2ccc(F)cc2)c2ccc(F)cc2)N1S(=O)(=O)c1ccccc1 [Example 93, N-(3-fluoro-2-{2-[(2R,6S)-6-methyl-1-(phenylsulfonyl)piperazin-2-yl]ethyl}phenyl)-3,3-bis(4-fluorophenyl) propanamide] | 120 nM |
| CC(=O)Nc1nc(C)c(S(=O)(=O)N2CCNC[C@@H]2CCc2c(F)cncc2NC(=O)C[C@@H](c2ccc(F)cc2)c2cc(F)cc(F)c2)s1 [Example 318, (3S)-N-(4-{2-[(2S)-1-{[2-(acetylamino)-4-methyl-1,3-thiazol-5-yl]sulfonyl}piperazin-2-yl]ethyl}-5-fluoropyridin-3-yl)-3-(3,5-difluorophenyl)-3-(4-fluorophenyl)propanamide] | 97 nM |
| COC(=O)N[C@H](C(=O)Nc1cccc(F)c1CC[C@H]1CNC[C@H](C)N1S(=O)(=O)c1ccccc1)C1(c2ccc(Cl)cc2)CCOCC1 [Example 276, methyl {(1S)-1-[4-(4-chlorophenyl)tetrahydro-2H-pyran-4-yl]-2-[(3-fluoro-2-{2-[(2S,6S)-6-methyl-1-(phenylsulfonyl)piperazin-2-yl]ethyl}phenyl)amino]-2-oxoethyl}carbamate] | 9.1 nM |
| COc1ccc([C@H](c2ccc(Cl)cc2)[C@H](N)C(=O)Nc2cccc(F)c2CC[C@H]2CNC[C@H](C)N2S(=O)(=O)c2ccc(OC(F)(F)F)cc2)cn1 [Example 188, (βS)-4-chloro-N-(3-fluoro-2-{2-[(2S,6S)-6-methyl-1-{[4-(trifluoromethoxy)phenyl]sulfonyl}piperazin-2-yl]ethyl}phenyl)-β-(6-methoxypyridin-3-yl)-L-phenylalaninamide] | 55 nM |
| C[C@@H]1CNC[C@H](CCc2c(F)cncc2NC(=O)[C@@H](N)[C@@H](c2ccc(F)cc2)c2cc(F)cc(F)c2)N1S(=O)(=O)c1ccc(OC(F)(F)F)cc1 [Example 227, (βS)-β-(3,5-difluorophenyl)-4-fluoro-N-(5-fluoro-4-{2-[(2S,6R)-6-methyl-1-{[4-(trifluoromethoxy)phenyl]sulfonyl}piperazin-2-yl]ethyl}pyridin-3-yl)-L-phenylalaninamide] | 23 nM |
| COC(=O)N[C@H](C(=O)Nc1cccc(F)c1CC[C@H]1CNC[C@@H](C)N1S(=O)(=O)c1ccccc1)[C@@H](c1ccc(F)cc1)C1CCOCC1 [Example 103, (βR)-4-fluoro-N-(3-fluoro-2-{2-[(2S,6R)-6-methyl-1-(phenylsulfonyl)piperazin-2-yl]ethyl}phenyl)-Nα-(methoxycarbonyl)-β-(tetrahydro-2H-pyran-4-yl)-L-phenylalaninamide] | 8.6 nM |
| COC(=O)N[C@H](C(=O)Nc1cccc(F)c1CC[C@H]1CNCC(COC(C)C)N1S(=O)(=O)C1CC1)[C@@H](c1ccc(F)cc1)c1cc(F)cc(F)c1 (stereo partly drawn) [Example 237, (βS)-N-[2-(2-{(2S)-1-(cyclopropylsulfonyl)-6-[(1-methylethoxy)methyl]piperazin-2-yl}ethyl)-3-fluorophenyl]-β-(3,5-difluorophenyl)-4-fluoro-Nα-(methoxycarbonyl)-L-phenylalaninamide] | 30 nM |
